The record followed here is patent US20040176431A1, “Antiproliferative 2-(sulfo-phenyl)-aminothiazole derivatives and pharmaceutical compositions, and methods for their use” (Pfizer, Inc., priority 2003, published 2004).

One assay has as its target T1, CDK4/cyclin D3 (Homo sapiens, UniProt P11802).
T1 construct: made in house; host or cells: insect cells (baculovirus co-infection)
The assay can be described thus: Inhibition of CDK4/Cyclin D retinoblastoma kinase activity. Type of assay: biochemical. The settings on record: apparent Ki, Rb fragment substrate. The method, boiled down: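 Human CDK4 with truncated cyclin D3 (1-264) from baculovirus-infected insect cells, 5 nM, phosphorylating His-tagged Rb fragment (386-928) with 25 μM [32P/33P]ATP in pH 7.4 HEPES/MgCl2, 2% DMSO, 30° C., 20 min (60 min for tight binders). Filter capture, phosphorimager; apparent Ki from competitive or tight-binding competitive fits.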

A further assay deals with HCT-116 cells. Nature of the assay: Inhibition of cell growth (MTT tetrazolium salt assay). The assay is classed as cell-based. The settings on record: Homo sapiens; for IC50: read-out: HCT116 IC50; for IC90: read-out: HCT116 IC90. The protocol: Inhibition of cell growth was measured using the tetrazolium salt assay, which is based on the ability of viable cells to reduce 3-(4,5-dimethylthiazol-2-yl)-2,5-[2H]-diphenyltetrazolium bromide (MTT) to formazan (Mosmann, J. Immunol. Meth., 65, 55-63 (1983)). The water-insoluble purple formazan product was then detected spectrophotometrically. HCT-116 cells were grown in 96-well plates. Cells were plated in the appropriate medium at a volume of 135 μl/well in either McCoy's 5A Medium. Plates were incubated for four hours before addition of inhibitor compounds. Different concentrations of inhibitor compounds were added in 0.5% (v/v) dimethylsulfoxide (15 μL/well), and cells were incubated at 37° C. (5% CO2) for four to six days (depending on cell type). At the end of the incubation, MTT was added to a final concentration of 0.2 mg/mL, and cells were incubated for 4 hours more at 37° C. After centrifugation of the plates and removal of medium, the absorbance of the formazan (solubilized in dimethylsulfoxide) was measured at 540 nm. […] All results were compared to control cells treated only with 0.5% (v/v) dimethylsulfoxide.
Background: Tetrazolium assays rely on reduction of a dye to a coloured formazan, in cell work by metabolically active cells.

The target of another assay is T2, CDK2/cyclin A (Homo sapiens, UniProt P24941).
T2 construct: made in house; host or cells: CDK2: insect cells (baculovirus); cyclin A: E. coli, then limited proteolysis
Nature of the assay: Inhibition of CDK2/Cyclin A retinoblastoma kinase activity. Type of assay: biochemical. The settings on record: apparent Ki, Rb fragment substrate. As for the experimental part: Cyclin-dependent kinase activity was measured by quantifying the enzyme-catalyzed, time-dependent incorporation of radioactive phosphate from [^32P]ATP or [^33P]ATP into a protein substrate. Unless noted otherwise, assays were performed in 96-well plates in a total volume of 50 μL, in the presence of 10 mM HEPES (N-[2-hydroxyethyl]piperazine-N′-[2-ethanesulfonic acid]) (pH 7.4), 10 mM MgCl2, 25 μM adenosine triphosphate (ATP), 1 mg/mL ovalbumin, 5 μg/mL leupeptin, 1 mM dithiothreitol, 10 mM β-glycerophosphate, 0.1 mM sodium vanadate, 1 mM sodium fluoride, 2.5 mM ethylene glycol-bis(β-aminoethyl ether)-N,N,N′N′-tetraacetic acid (EGTA), 2% (v/v) dimethylsulfoxide, and 0.03-0.4 μCi [^32/33P]ATP per reaction. Reactions were initiated with enzyme, incubated at 30° C., and terminated after 20 minutes by the addition of ethylenediaminetetraacetic acid (EDTA) to 250 mM. The phosphorylated substrate was then captured on a nitrocellulose or phosphocellulose membrane using a 96-well filtration manifold, and unincorporated radioactivity was removed by repeated washing with 0.85% phosphoric acid. Radioactivity was quantified by exposing the dried membranes to a phosphorimager.
Inhibition was measured relative to control wells that contained all reaction components including 2% (v/v) DMSO but no compound, after subtraction of background radioactivity measured in the absence of enzyme. Apparent Ki values of discrete compounds were measured by assaying enzyme activity in the presence of different inhibitor compound concentrations and subtracting the background radioactivity measured in the absence of enzyme. The kinetic parameters (kcat, Km for ATP) were measured for each enzyme under the usual assay conditions by determining the dependence of initial rates on ATP concentration. Inhibition data were fit to an equation for competitive inhibition using Kaleidagraph (Synergy Software), or were fit to an equation for competitive tight-binding inhibition using the software KineTic (BioKin, Ltd.).
CDK2 was purified using published methodology (Rosenblatt et al., J. Mol. Biol., 230, 1317-1319 (1993)) from insect cells that had been infected with a baculovirus expression vector. Cyclin A was purified from E. coli cells expressing full-length recombinant cyclin A, and a truncated cyclin A construct was generated by limited proteolysis and purified as described previously (Jeffrey et al., Nature, 376, 313-320 (1995)). A complex of CDK2 and proteolyzed cyclin A was prepared and purified by gel filtration. The substrate for this assay was the same Rb substrate fragment used for the CDK4 assays, and the methodology of the CDK2/delta cyclin A and the CDK4/delta cyclin D3 assays was essentially the same, except that CDK2 was present at 10 nM or 19 nM. The duration of the assay was 60 or 75 minutes, during which the time-dependence of product formation was linear and initial rate conditions were met.

The structures appear in SMILES notation. Some results are limits rather than exact numbers.

T1 sequence (P11802 whole entry): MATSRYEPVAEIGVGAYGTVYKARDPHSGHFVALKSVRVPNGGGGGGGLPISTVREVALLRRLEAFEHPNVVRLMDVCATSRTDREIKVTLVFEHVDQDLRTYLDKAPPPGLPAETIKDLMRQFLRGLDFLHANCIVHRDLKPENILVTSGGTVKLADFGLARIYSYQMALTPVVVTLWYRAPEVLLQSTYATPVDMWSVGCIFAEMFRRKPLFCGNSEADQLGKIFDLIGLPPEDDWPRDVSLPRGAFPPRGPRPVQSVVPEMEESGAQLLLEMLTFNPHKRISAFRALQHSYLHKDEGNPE
T1 sequence (P30281 1-264 partner limits assumed): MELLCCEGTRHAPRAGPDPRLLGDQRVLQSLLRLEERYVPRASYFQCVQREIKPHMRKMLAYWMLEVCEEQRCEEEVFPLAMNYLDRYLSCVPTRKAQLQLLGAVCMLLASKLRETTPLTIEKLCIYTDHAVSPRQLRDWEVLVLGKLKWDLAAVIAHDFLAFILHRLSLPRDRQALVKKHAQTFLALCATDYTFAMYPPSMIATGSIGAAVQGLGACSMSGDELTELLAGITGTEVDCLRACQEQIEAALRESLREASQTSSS

The term IC50 denotes the point on the concentration scale where inhibition reaches its midpoint. The term IC90 denotes the concentration at which the effect reaches the 90% level. As to `NC(=O)CSc1cccc(Nc2nc(N)c(C(=O)c3c(Cl)cccc3Cl)s2)c1` [Y(3), 2-{3-[4-Amino-5-(2,6-dichloro-benzoyl)-thiazol-2-ylamino]-phenylthio) acetamide], the Ki at CDK4/cyclin D3 amounted to 33 nM. In the assay on HCT-116 cells, the IC50 came out at 11000 nM and the IC90 was greater than 25000 nM. In addition, on CDK2/cyclin A, the Ki worked out at 92 nM.
Taken in the same sequence, the figures for `Nc1nc(Nc2ccc(S(=O)(=O)Nc3ccccc3)cc2)sc1C(=O)c1c(F)cccc1F` [C(1), 4-[4-Amino-5-(2,6-difluoro-benzoyl)-thiazol-2-ylamino]-N-phenyl-benzenesulfonamide] were 76 nM, 870 nM, 1900 nM and 17 nM.
Taken in the same sequence, the figures for `Nc1nc(Nc2ccc([S+]([O-])CCO)cc2)sc1C(=O)c1c(Cl)cccc1Cl` (centres unmarked) [Z(3), 4-Amino-5-(2,6-dichlorobenzoyl)-2-[4-(2-hydroxy-ethanesulfinyl)-phenylamino]-thiazole] were 30 nM, 6800 nM, 16000 nM and 170 nM.
Taken in the same sequence, the figures for `Cc1cc(F)c(C(=O)c2sc(Nc3ccc(S(=O)(=O)NCCOC(C)C)cc3)nc2N)c(F)c1` [Example CC(1), 4-[4-Amino-5-(2,6-difluoro-4-methyl-benzoyl)-thiazol-2-ylamino]-N-(2-isopropoxy-ethyl)-benzenesulfonamide] were 9.7 nM, 280 nM, 480 nM and 0.74 nM.
Take `Nc1nc(Nc2ccc(S(=O)(=O)NCCCN3CCCCC3)cc2)sc1C(=O)c1c(F)cccc1F` [Example A(14), 4-[4-Amino-5-(2,6-difluoro-benzoyl)-thiazol-2-ylamino]-N-(3-piperidin-1-yl-propyl)-benzenesulfonamide]: the Ki at CDK4/cyclin D3 amounted to 8.1 nM; on CDK2/cyclin A it was 6 nM. Further, in the assay on HCT-116 cells, the IC50 worked out at 420 nM. Besides, in the assay with HCT-116 cells, the IC90 turned out to be 1700 nM.
Taken in the same sequence, the figures for `CCN(CC)CCCCNS(=O)(=O)c1ccc(Nc2nc(N)c(C(=O)c3c(F)cccc3F)s2)cc1` [A(26), 4-[4-Amino-5-(2,6-difluoro-benzoyl)-thiazol-2-ylamino]-N-(4-diethylamino-butyl)-benzenesulfonamide] were 3 nM, 2.9 nM, 850 nM and 3300 nM.
`Nc1nc(Nc2ccc(S(=O)(=O)NCCc3cccs3)cc2)sc1C(=O)c1c(F)cccc1F` [A(23), 4-[4-Amino-5-(2,6-difluoro-benzoyl)-thiazol-2-ylamino]-N-(2-thiophen-2-yl-ethyl)-benzenesulfonamide]: the Ki at CDK4/cyclin D3 came to 17 nM. Moreover, in the assay with HCT-116 cells, the IC50 was 440 nM and the IC90 was found to be 1200 nM. The Ki on CDK2/cyclin A turned out to be 13 nM.
`Cc1ccsc1C(=O)c1sc(Nc2ccc(S(N)(=O)=O)cc2)nc1N` [C(48)*, reference compound]: the figures for the Ki at CDK4/cyclin D3 and on CDK2/cyclin A were 19.1 nM and 11 nM, respectively. In addition, the IC50 with HCT-116 cells was 340 nM.
Consider `Cc1ccc(C(C)NS(=O)(=O)c2ccc(Nc3nc(N)c(C(=O)c4c(F)cccc4F)s3)cc2)o1` (centres unmarked) [A(30), 4-[4-Amino-5-(2,6-difluoro-benzoyl)-thiazol-2-ylamino]-N-[1-(5-methyl-furan-2-yl)-ethyl]-benzenesulfonamide], for which, on CDK4/cyclin D3, the Ki was 9 nM. Also, in the assay with HCT-116 cells, the IC50 amounted to 310 nM and the 90% effect concentration (IC90) came out at 640 nM. The Ki on CDK2/cyclin A was less than 5 nM.
Consider `CCSCCNS(=O)(=O)c1ccc(Nc2nc(N)c(C(=O)c3c(F)cccc3F)s2)cc1` [Example A(19), 4-[4-Amino-5-(2,6-difluoro-benzoyl)-thiazol-2-ylamino]-N-(2-ethylsulfanyl-ethyl)-benzenesulfonamide], for which the results for the Ki on CDK4/cyclin D3 and on CDK2/cyclin A were 24 nM and 1.8 nM, respectively. Also, the IC50 in the assay with HCT-116 cells came to 400 nM. Further, the IC90 with HCT-116 cells worked out at 1300 nM.
With `Cc1csc(NS(=O)(=O)c2ccc(Nc3nc(N)c(C(=O)c4c(F)cccc4F)s3)cc2)n1` [E(1), 4-[4-Amino-5-(2,6-difluoro-benzoyl)-thiazol-2-ylamino]-N-(4-methyl-thiazol-2-yl)-benzenesulfonamide], on CDK4/cyclin D3, the Ki stood at 42 nM. In the assay on HCT-116 cells, the IC50 was 7000 nM and the IC90 was 17000 nM. At CDK2/cyclin A, the Ki amounted to 15 nM.
Taken in the same sequence, the figures for `Nc1nc(Nc2ccc(S(=O)(=O)NCCCCO)cc2)sc1C(=O)c1c(F)cccc1F` [Example A(5), 4-[4-Amino-5-(2,6-difluoro-benzoyl)-thiazol-2-ylamino]-N-(4-hydroxy-butyl)-benzenesulfonamide] were 24 nM, 1300 nM, 3000 nM and 5.7 nM.
Taken in the same sequence, the figures for `Cc1ccc(CNS(=O)(=O)c2ccc(Nc3nc(N)c(C(=O)c4c(F)cccc4F)s3)cc2)s1` [A(29), 4-[4-Amino-5-(2,6-difluoro-benzoyl)-thiazol-2-ylamino]-N-(5-methyl-thiophen-2-ylmethyl)-benzenesulfonamide] were 15 nM, 190 nM, 560 nM and less than 5 nM.
With `Cc1ccc(CNS(=O)(=O)c2ccc(Nc3nc(N)c(C(=O)c4c(F)cc(F)cc4F)s3)cc2)o1` [B(1), 4-[4-Amino-5-(2,4,6-trifluoro-benzoyl)-thiazol-2-ylamino]-N-(5-methyl-furan-2-ylmethyl)-benzenesulfonamide], the Ki on CDK4/cyclin D3 worked out at 100 nM. In addition, in the assay on HCT-116 cells, the IC50 was 900 nM and the IC90 was 2000 nM. Also, on CDK2/cyclin A, the Ki is less than 10 nM.
Taken in the same sequence, the figures for `CCN(CC)CCCNS(=O)(=O)c1ccc(Nc2nc(N)c(C(=O)c3c(F)cccc3F)s2)cc1` [Example A(13), 4-[4-Amino-5-(2,6-difluoro-benzoyl)-thiazol-2-ylamino]-N-(3-diethylamino-propyl)-benzenesulfonamide] were 8.9 nM, 730 nM, 3000 nM and 10 nM.
As to `NC(=O)CSc1ccc(Nc2nc(N)c(C(=O)c3c(Cl)cccc3Cl)s2)cc1` [Y(1), 2-{4-[4-Amino-5-(2,6-dichloro-benzoyl)-thiazol-2-ylamino]-phenylthio}-acetamide], the Ki at CDK4/cyclin D3 was 11 nM. Also, in the assay on HCT-116 cells, the IC50 is 2300 nM and the IC90 was 6000 nM. The Ki on CDK2/cyclin A amounted to 66 nM.
For `Nc1nc(Nc2ccc(S(=O)(=O)NCCc3ccccn3)cc2)sc1C(=O)c1c(F)cccc1F` [A(24), 4-[4-Amino-5-(2,6-difluoro-benzoyl)-thiazol-2-ylamino]-N-(2-pyridin-2-yl-ethyl)-benzenesulfonamide], the Ki on CDK4/cyclin D3 was found to be 18 nM. Further, in the assay on HCT-116 cells, the IC50 came out at 1200 nM and the IC90 stood at 2600 nM. The Ki at CDK2/cyclin A turned out to be 5 nM.
As for `Nc1nc(Nc2ccc(S(=O)(=O)NCCCN3CCCC3)cc2)sc1C(=O)c1c(F)cccc1F` [Example A(8), 4-[4-Amino-5-(2,6-difluoro-benzoyl)-thiazol-2-ylamino]-N-(3-pyrrolidin-1-yl-propyl)-benzenesulfonamide], the Ki at CDK4/cyclin D3 was 9.9 nM. Also, in the assay on HCT-116 cells, the IC50 is 2400 nM and the IC90 was 5000 nM. The Ki on CDK2/cyclin A came out at 11 nM.
